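Interpolation was linear, between the two tested concentrations surrounding the appropriate level; five concentrations were tested over 48 hours in 96-well plates. GI50 = concentration required for 50% inhibition of growth. TGI is the concentration that stops growth completely.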
Experiments:
Assay in all cases: inhibition of tumour cell growth, NCI panel, 48 h
UACC-62 melanoma = test system: UACC-62 melanoma
SNB-78 CNS = test system: SNB-78 CNS
RPMI-8226 leukemia = test system: RPMI-8226 leukemia
DMS 114 small cell lung = test system: DMS 114 small cell lung
HOP-92 NSCLC = test system: HOP-92 NSCLC
MALME-3M melanoma = test system: MALME-3M melanoma
HL-60(TB) leukemia = test system: HL-60(TB) leukemia
CCRF-CEM leukemia = test system: CCRF-CEM leukemia
OVCAR-5 ovarian = test system: OVCAR-5 ovarian
HCT-116 colon = test system: HCT-116 colon
SF-268 CNS = test system: SF-268 CNS
CAKI-1 renal = test system: CAKI-1 renal
SK-MEL-28 melanoma = test system: SK-MEL-28 melanoma
MOLT-4 leukemia = test system: MOLT-4 leukemia
DLD-1 colon = test system: DLD-1 colon
K-562 leukemia = test system: K-562 leukemia
SN12C renal = test system: SN12C renal
COLO 205 colon = test system: COLO 205 colon
KM12 colon = test system: KM12 colon
NCI-H460 lung = test system: NCI-H460 lung
SF-295 CNS = test system: SF-295 CNS
SNB-19 CNS = test system: SNB-19 CNS
DMS 273 small cell lung = test system: DMS 273 small cell lung
OVCAR-8 ovarian = test system: OVCAR-8 ovarian
NCI-H522 lung = test system: NCI-H522 lung
XF 498 CNS = test system: XF 498 CNS
HCC-2998 colon = test system: HCC-2998 colon
A498 renal = test system: A498 renal
LOX IMVI melanoma = test system: LOX IMVI melanoma
SW-620 colon = test system: SW-620 colon
NCI-H226 lung = test system: NCI-H226 lung
NCI-H23 lung = test system: NCI-H23 lung
IGROV1 ovarian = test system: IGROV1 ovarian
U251 CNS = test system: U251 CNS
SK-MEL-5 melanoma = test system: SK-MEL-5 melanoma
UACC-257 melanoma = test system: UACC-257 melanoma
EKVX NSCLC = test system: EKVX NSCLC
HOP-62 NSCLC = test system: HOP-62 NSCLC
M14 melanoma = test system: M14 melanoma
SF-539 CNS = test system: SF-539 CNS
UO-31 renal = test system: UO-31 renal
LXFL 529 NSCLC = test system: LXFL 529 NSCLC
RXF 393 renal = test system: RXF 393 renal
OVCAR-4 ovarian = test system: OVCAR-4 ovarian
M19-MEL melanoma = test system: M19-MEL melanoma
HCT-15 colon = test system: HCT-15 colon
HT29 colon = test system: HT29 colon
SK-OV-3 ovarian = test system: SK-OV-3 ovarian
SNB-75 CNS = test system: SNB-75 CNS
KM20L2 colon = test system: KM20L2 colon
786-0 renal = test system: 786-0 renal
OVCAR-3 ovarian = test system: OVCAR-3 ovarian
SK-MEL-2 melanoma = test system: SK-MEL-2 melanoma
TK-10 renal = test system: TK-10 renal
ACHN renal = test system: ACHN renal
A549 NSCLC = test system: A549 NSCLC

SMILES: CCCCCCC[CH2][Sn]([Cl])([Cl])[CH2]CCCCCCC
- GI50 (UACC-62 melanoma): 2.05 µM
- TGI (UACC-62 melanoma): 4.97 µM
- GI50 (SNB-78 CNS): 6.25 µM
- TGI (SNB-78 CNS): 21.4 µM
- GI50 (RPMI-8226 leukemia): 2.24 µM
- TGI (RPMI-8226 leukemia): 12.6 µM
- GI50 (DMS 114 small cell lung): 3.93 µM
- TGI (DMS 114 small cell lung): 13.9 µM
- GI50 (HOP-92 NSCLC): 5.27 µM
- TGI (HOP-92 NSCLC): 18.4 µM
- GI50 (MALME-3M melanoma): 5.2 µM
- TGI (MALME-3M melanoma): 18.1 µM
- GI50 (HL-60(TB) leukemia): 3.29 µM
- TGI (HL-60(TB) leukemia): 11.2 µM
- GI50 (CCRF-CEM leukemia): 3.27 µM
- TGI (CCRF-CEM leukemia): 10.9 µM
- GI50 (OVCAR-5 ovarian): 13.3 µM
- TGI (OVCAR-5 ovarian): 26.2 µM
- GI50 (HCT-116 colon): 3.66 µM
- TGI (HCT-116 colon): 15.3 µM
- GI50 (SF-268 CNS): 4.11 µM
- TGI (SF-268 CNS): 15.4 µM
- GI50 (CAKI-1 renal): 11 µM
- TGI (CAKI-1 renal): 23.2 µM
- GI50 (SK-MEL-28 melanoma): 3.82 µM
- TGI (SK-MEL-28 melanoma): 12.9 µM
- GI50 (MOLT-4 leukemia): 2.96 µM
- TGI (MOLT-4 leukemia): 10.5 µM
- GI50 (DLD-1 colon): 5.37 µM
- TGI (DLD-1 colon): 17.6 µM
- GI50 (K-562 leukemia): 3.66 µM
- TGI (K-562 leukemia): 19.7 µM
- GI50 (SN12C renal): 7.41 µM
- TGI (SN12C renal): 19.9 µM
- GI50 (COLO 205 colon): 6 µM
- TGI (COLO 205 colon): 17.3 µM
- GI50 (KM12 colon): 5.98 µM
- TGI (KM12 colon): 18.8 µM
- GI50 (NCI-H460 lung): 13.2 µM
- TGI (NCI-H460 lung): 26.8 µM
- GI50 (SF-295 CNS): 12.5 µM
- TGI (SF-295 CNS): 25 µM
- GI50 (SNB-19 CNS): 7.15 µM
- TGI (SNB-19 CNS): 20 µM
- GI50 (DMS 273 small cell lung): 4.9 µM
- TGI (DMS 273 small cell lung): 16.8 µM
- GI50 (OVCAR-8 ovarian): 4.46 µM
- TGI (OVCAR-8 ovarian): 16.6 µM
- GI50 (NCI-H522 lung): 2.3 µM
- TGI (NCI-H522 lung): 4.95 µM
- GI50 (XF 498 CNS): 4.9 µM
- TGI (XF 498 CNS): 16.5 µM
- GI50 (HCC-2998 colon): 4.23 µM
- TGI (HCC-2998 colon): 17 µM
- GI50 (A498 renal): 6.51 µM
- TGI (A498 renal): 18.8 µM
- GI50 (LOX IMVI melanoma): 3.56 µM
- TGI (LOX IMVI melanoma): 11.5 µM
- GI50 (SW-620 colon): 6.66 µM
- TGI (SW-620 colon): 19.3 µM
- GI50 (NCI-H226 lung): 10.1 µM
- TGI (NCI-H226 lung): 22.4 µM
- GI50 (NCI-H23 lung): 6.84 µM
- TGI (NCI-H23 lung): 18.8 µM
- GI50 (IGROV1 ovarian): 7.61 µM
- TGI (IGROV1 ovarian): 20.3 µM
- GI50 (U251 CNS): 2.21 µM
- TGI (U251 CNS): 6.09 µM
- GI50 (SK-MEL-5 melanoma): 6.88 µM
- TGI (SK-MEL-5 melanoma): 19.4 µM
- GI50 (UACC-257 melanoma): 4.38 µM
- TGI (UACC-257 melanoma): 15.9 µM
- GI50 (EKVX NSCLC): 10.4 µM
- TGI (EKVX NSCLC): 22.2 µM
- GI50 (HOP-62 NSCLC): 14.5 µM
- TGI (HOP-62 NSCLC): 27.5 µM
- GI50 (M14 melanoma): 6.94 µM
- TGI (M14 melanoma): 19.5 µM
- GI50 (SF-539 CNS): 4.36 µM
- TGI (SF-539 CNS): 16.6 µM
- GI50 (UO-31 renal): 10.6 µM
- TGI (UO-31 renal): 22.4 µM
- GI50 (LXFL 529 NSCLC): 3.05 µM
- TGI (LXFL 529 NSCLC): 10.8 µM
- GI50 (RXF 393 renal): 2.7 µM
- TGI (RXF 393 renal): 9.01 µM
- GI50 (OVCAR-4 ovarian): 10.5 µM
- TGI (OVCAR-4 ovarian): 22.4 µM
- GI50 (M19-MEL melanoma): 9.31 µM
- TGI (M19-MEL melanoma): 21.3 µM
- GI50 (HCT-15 colon): 5.69 µM
- TGI (HCT-15 colon): 18.7 µM
- GI50 (HT29 colon): 6.83 µM
- TGI (HT29 colon): 20 µM
- GI50 (SK-OV-3 ovarian): 16.6 µM
- TGI (SK-OV-3 ovarian): 30.2 µM
- GI50 (SNB-75 CNS): 3.67 µM
- TGI (SNB-75 CNS): 18.1 µM
- GI50 (KM20L2 colon): 11.1 µM
- TGI (KM20L2 colon): 23.2 µM
- GI50 (786-0 renal): 4.58 µM
- TGI (786-0 renal): 17.1 µM
- GI50 (OVCAR-3 ovarian): 4.91 µM
- TGI (OVCAR-3 ovarian): 17 µM
- GI50 (SK-MEL-2 melanoma): 2.45 µM
- TGI (SK-MEL-2 melanoma): 7.47 µM
- GI50 (TK-10 renal): 16 µM
- TGI (TK-10 renal): 29.4 µM
- GI50 (ACHN renal): 7.17 µM
- TGI (ACHN renal): 19.9 µM
- GI50 (A549 NSCLC): 17.5 µM
- TGI (A549 NSCLC): 34.3 µM

SMILES: C[C@]12CC[C@H](O)CC1=CC[C@@H]1C2CC[C@]2(C)NC(=O)C(C#N)CC12 (stereo partly specified)
- TGI (UACC-62 melanoma): > 100 µM
- TGI (SNB-78 CNS): > 100 µM
- TGI (RPMI-8226 leukemia): > 100 µM
- TGI (DMS 114 small cell lung): > 100 µM
- TGI (MALME-3M melanoma): > 100 µM
- TGI (HL-60(TB) leukemia): > 100 µM
- TGI (CCRF-CEM leukemia): > 100 µM
- TGI (OVCAR-5 ovarian): > 100 µM
- TGI (HCT-116 colon): > 100 µM
- TGI (CAKI-1 renal): > 100 µM
- TGI (SK-MEL-28 melanoma): > 100 µM
- TGI (MOLT-4 leukemia): > 100 µM
- TGI (DLD-1 colon): > 100 µM
- TGI (K-562 leukemia): > 100 µM
- TGI (KM12 colon): > 100 µM
- TGI (NCI-H460 lung): > 100 µM
- TGI (SF-295 CNS): > 100 µM
- TGI (DMS 273 small cell lung): > 100 µM
- TGI (OVCAR-8 ovarian): > 100 µM
- TGI (XF 498 CNS): > 100 µM
- TGI (HCC-2998 colon): > 100 µM
- TGI (A498 renal): > 100 µM
- TGI (SW-620 colon): > 100 µM
- TGI (NCI-H226 lung): > 100 µM
- TGI (NCI-H23 lung): > 100 µM
- TGI (IGROV1 ovarian): > 100 µM
- TGI (U251 CNS): > 100 µM
- TGI (SK-MEL-5 melanoma): > 100 µM
- TGI (UACC-257 melanoma): > 100 µM
- TGI (EKVX NSCLC): > 100 µM
- TGI (HOP-62 NSCLC): > 100 µM
- TGI (M14 melanoma): > 100 µM
- TGI (SF-539 CNS): > 100 µM
- TGI (UO-31 renal): > 100 µM
- TGI (LXFL 529 NSCLC): > 100 µM
- TGI (RXF 393 renal): > 100 µM
- TGI (OVCAR-4 ovarian): > 100 µM
- TGI (M19-MEL melanoma): > 100 µM
- TGI (HCT-15 colon): > 100 µM
- TGI (HT29 colon): > 100 µM
- TGI (SK-OV-3 ovarian): > 100 µM
- TGI (SNB-75 CNS): > 100 µM
- TGI (KM20L2 colon): > 100 µM
- TGI (786-0 renal): > 100 µM
- TGI (OVCAR-3 ovarian): > 100 µM
- TGI (SK-MEL-2 melanoma): > 100 µM
- TGI (TK-10 renal): > 100 µM
- TGI (ACHN renal): > 100 µM
- TGI (A549 NSCLC): > 100 µM

From PubChem BioAssay (NCI)
